According to US6190849A, “Photographic element containing ballasted tetrazole derivative and inhibitor releasing coupler” (priority 1999, dated 2001):

Experiments:
[1] = Interimage in bilayer format: IDIR-2 in blue layer, IEM in green layer; details: for Cg /Cb+g (interimage): IEM or CIEM in green layer at 7.2×10^-3 mmol/m^2, higher ratio = more interimage, no-IEM check; for Relative Speed (green layer): IEM or CIEM in green layer, speed point +0.15 density above Dmin, normalized to check
Experimental: (§1) Bilayer photographic elements were prepared by coating the following layers on a cellulose triacetate film support (coverages are in g/m^2). Unless otherwise noted, all comparative and inventive compounds were dispersed in twice their own weight of N,N-dibutyllauramide: […] Layer 3 (Interlayer): gelatin at 0.64, ILS-1 at 0.11 and FD-1 at 0.11. […] Layer 5 (Overcoat): gelatin at 2.79 and 0.02 bis-vinylsulfonemethylether. […] Contrast of the elements was determined using the maximum slope between any two density points. In this test, the ratio of the contrast of the green only exposure to the contrast of the green of a blue and green exposure (Cg /Cb+g) is a measure of the interimage. A higher ratio means more inhibition originating from the blue and affecting the green record. Relative speed of the green layer was determined by measuring the speed point +0.15 density units above Dmin and normalizing to the check position.

[2] = Interimage in bilayer format: IDIR-1 in green layer, IEM in blue layer
Experimental: Samples of each element were given a stepped exposure of either green light only or blue and green light combined and processed in the KODAK FLEXICOLOR™ (C4 1) process as described in British Journal of Photography Annual, 1988, pp196-198. Contrast of the elements was determined using the maximum slope between any two density points. […] A higher ratio means more inhibition originating from the blue and affecting the green record. Relative speed of the green layer was determined by measuring the speed point +0.15 density units above Dmin and normalizing to the check position.
Additional bilayer elements were prepared in a manner similar to above by coating the following layers:
Layer 1 (Antihalation Layer): black colloidial elemental silver at 0.34 and gelatin at 2.41.
Layer 2 (Causer Layer): gelatin at 2.79, IDIR-1 at 0.054, coupler M-1 (dispersed as described previously) added at 0.045, and 0.81 green sensitized AgIBr tabular emulsion.
Layer 3 (Interlayer): gelatin at 0.64, ILS-1 at 0.11 and FD-1 at 0.11.
Layer 4 (Receiver Layer): gelatin at 2.79, coupler Y-2 at 1.08, IDIR-6 at 0.076, 0.79 blue sensitized AgIBr tabular emulsion and (when present) IEM-4 (dispersed as above) at 0.0023.
Layer 5 (Overcoat): gelatin at 2.79 and 0.02 bis-vinylsulfonemethylether.

[3] = Interimage in bilayer format: IDIR-6 in blue layer, IEM in green layer; details: for Cg /Cb+g (interimage): IEM or CIEM in green layer at 7.2×10^-3 mmol/m^2; for Relative Speed (green layer): IEM or CIEM in green layer, normalized to check
Experimental: as §1

[4] = Interimage in multilayer format (density change of receiver record); details: CDIR-1 in red
Excerpt: Multilayer Film Example ML-1:
Layer 1 (Antihalation layer): black collodial silver sol at 0.135; ILS-1 at 0.162,
Layer 2 (Slow cyan layer): a blend of two red sensitized (both with a mixture of RSD-1 and RSD-2) tabular silver iodobromide emulsions: (i) 0.66×0.12, 4.1 mole % I at 0.302 (ii) 0.55×0.08, 1.5 mole % I at 0.464; cyan dye-forming coupler C-1 at 0.535; DIR coupler CDIR-1 at 0.027; bleach accelerator releasing coupler B-1 at 0.057; masking coupler MC-1 at 0.032; and gelatin at 1.68.
Layer 3 (Mid cyan layer): a blend of two red sensitized (same as above) tabular silver iodobromide emulsions: (i) […], 4.1 mole % I at 0.194 (ii) 1.07×0.11, 4.1 mole % I at 0.238; cyan coupler C-1 at 0.171; CDIR-1 at 0.019; MC-1 at 0.032; B-1 at 0.008; and gelatin at 1.08.
Layer 4 (Fast cyan layer): a red sensitized (same as above) tabular silver iodobromide emulsion (1.33×0.12, 4.1 mole % I) at 0.594; C-1 at 0.184; CDIR-1 at 0.027; MC-1 at 0.022; and gelatin at 0.918.
Layer 5 (Interlayer): ILS-1 at 0.086 and gelatin at 0.540.
Layer 6 (Slow magenta layer): a blend of two green sensitized (both with a mixture of GSD-1 and GSD-2) silver iodobromide emulsions: (i) 0.81×0.12, 2.6 mole % iodide at 0.346 and (ii) 0.55×0.08, 1.5 mole % iodide at 0.130; magenta dye forming coupler M-1 at 0.270; MC-2 at 0.086; IDIR-5 at 0.011; and gelatin at 1.08.
Layer 7 (Mid magenta layer): a blend of two green sensitized (same as above) tabular silver iodobromide emulsions (i) 1.22×0.11, 4.1 mole % I at 0.248 and (ii) 1.07×0.11, 4.1 mole % I at 0.248; M-1 at 0.124; MC-2 at 0.119; IDIR-5 at 0.043; OxDS-2 at 0.016; and gelatin at 1.22.
Layer 8 (Fast magenta layer): a green sensitized tabular silver iodobromide (1.33×0.12, 4.1 mole % I) emulsion at 0.486; M-1 at 0.076; MC-2 at 0.054; B-1 at 0.003; IDIR-5 at 0.015; OxDS-2 at 0.009; and gelatin at 1.02.
Layer 9 (Yellow filter layer): yellow filter dye FD-1 at 0.054; ILS-1 at 0.086; and gelatin at 0.648.
Layer 10 (Slow yellow layer): a blend of three blue sensitized (all with a mixture of BSD-1 and BSD-2) tabular silver iodobromide emulsions (i) 0.55×0.08, 1.5 mole % I at 0.270 (ii) […], 1.5 mole % I at 0.248 and (iii) 1.25×0.14, 4.1 mole % I at 0.400; yellow dye forming coupler Y-2 at 1.08; IDIR-6 at 0.076; CDIR-1 at 0.032; B-1 at 0.022; and gelatin at 1.879.
Layer 11 (Fast yellow layer): a blend of two blue sensitized (both with a mixture of BSD-1 and BSD-2) tabular silver iodobromide emulsions (i) 1.25×0.14, 4.1 mole % I at 0.108 (ii) 2.67×0.13, 4.1 mole % I at 0.378; Y-2 at 0.238; IDIR-6 at 0.076; B-1 at 0.005; and gelatin at 0.810.
Layer 12 (Protective overcoat and UV filter layer): silver bromide Lippman emulsion at 0.216; UV-1 at a total of 0.108; gelatin at 1.242 and bis(vinylsulfonyl)methane hardener at 1.75% of total gelatin weight.
Surfactants, coating aids, emulsion addenda, sequestrants, thickeners, lubricants, matte and tinting dyes were added to the appropriate layers as is common in the art. […]
These multilayer coatings were given a stepped exposure in one color record but only flashed (non-imagewise exposure) in the other two records and processed as described for the bilayer experiments. To monitor interimage, a step nearest to density of 1.5 in the stepped color record (the causer) was chosen, and the difference in density of the other color records (the receivers) at that step and at the no exposure step of the causer was determined. […]

[5] = ML-4: IEM-4 in green, IDIR-2 in blue

SMILES	Cg /Cb+g (interimage) [1]	Relative Speed (green layer) [1]	Cb /Cb+g (interimage) ([2]; IEM-4 in blue layer at 0.0023 g/m^2)	Relative Speed ([2]; IEM-4 in blue layer at 0.0023 g/m^2, normalized to check)	Cg /Cb+g (interimage) [3]	Relative Speed (green layer) [3]	R→G density difference (interimage) ([4]; ML-3: IEM-4 in green, IDIR-6 in blue)	B→G density difference (interimage) ([4]; ML-3: IEM-4 in green, IDIR-6 in blue, more negative = increased interimage)	B→G density difference (interimage) [4, 5]	R→G density difference (interimage) [4, 5]
CCCCCCCOC(=O)C(CCSC)n1nn[nH]c1=S (racemic) [IEM-4]	1.62	0.96	1.57	0.98	1.35	0.94	-0.206	-0.129	-0.212	-0.238
CC(=O)Nc1cccc(-n2nn[nH]c2=S)c1 [CIEM-1]	1.19	1.01	–	–	1.16	1.01	–	–	–	–
